# Results from US20070224155A1, “Cleansing compositions and methods of reducing skin irritation” (ACCESS BUSINESS GROUP INTERNATIONAL, LLC, priority 2006, published 2007).
# System: IL-1 alpha
# Assay: IL-1 alpha assay: ELISA of IL-1α secreted by fibroblast/keratinocyte co-cultures exposed to a surfactant irritant with or without mildness agent
# Assay type: cell-based, human
# Conditions: hand dishwashing detergent; for Percent IL-1 α Reduction AVG: average of 1%, 0.1% and 0.01%
# Excerpt: IL-1 alpha is one cytokine often released near the beginning of the inflammation cascade, which ultimately leads to a human biological response resulting in visible and/or perceptual signs of irritation. Accordingly, by reducing the initial response to an irritant, such as a surfactant, the ultimate damaging reaction can be reduced, prevented, and/or eliminated.
# The procedure for conducting IL-1 alpha assays is as follows: Co-cultures of fibroblasts and keratinocytes, the primary cell types found in skin, are established using 100,000 fibroblasts and 200,000 keratinocytes per well. These types of cells are those found in the outer layers of the skin exposed to detergent during every day use. An irritant, for example the surfactant package used in a dish detergent (Example 1 below), is then applied to the coculture wells to initiate the production and secretion of pro-inflammatory cytokines by the cells. One such cytokine is human interleukin-1 alpha or IL-1α. In the body, this protein is a key mediator of the host response to infections and various inflammatory challenges. Once produced, IL-1α stimulates production of other pro-inflammatory cytokines and bioactive molecules. Together, these biological molecules send the message that something is wrong and the keratinocytes and fibroblasts need help. This is called the inflammatory response.
# The amount of secreted IL-1α is directly related to the intensity of the inflammatory response. In vitro, the concentration of IL-1α secreted by the co-culture cells in response to the irritant can be measured via a precise laboratory technique known as an Enzyme Linked Immuno-Sorbent Assay or ELISA. Thus, to test botanical materials for mildness, a lessening of IL-1α secretion, the mildness agents were added with the chemical irritant. When a reduction in IL-1α expression was observed, the mildness agents were successful. Theoretically, there are several mechanisms by which this could have been achieved at the cellular level. Without wishing to be bound to a particular theory or in any way limit the scope of the appended claims or their equivalents, it is presently believed that these mechanisms may include one or more of the following: the mildness agent could block the transcription of the DNA to RNA, translation of the RNA to protein, and/or release of the IL-1α from the cells. […] The mildness agent may also have stopped the cascade after the irritant works on the cell. Whatever the mechanism, the net result is the same. There is less IL-1α released by the cells which correlates to inhibition of events in the inflammatory cascade and ultimately, less inflammation.
# These were prepared using a serial dilution technique: 1.0 g botanical was mixed well with 99.0 g dish detergent to give the 1.0% formulation; next, 10.0 g of the 1.0% solution was mixed well with 90.0 g of the dish detergent to give the 0.1% formulation; finally, 10.0 g of the 0.1% solution was mixed well with 90.0 g of the dish detergent to give the 0.01% formulation.
# [1] = botanical concentration 0.01% by weight
# [2] = botanical concentration 0.1% by weight
# [3] = botanical concentration 1% by weight
SMILES,Percent IL-1 α Reduction AVG [%],Percent IL-1 α Reduction [1] [%],Percent IL-1 α Reduction [2] [%],Percent IL-1 α Reduction [3] [%]
"O=C(O)c1ccccc1O.O[SiH2]O [D.S.B.C., silanediol salicylate]",12.42,7.46,13.07,16.74
"N[C@@H](CCC(=O)O)C(=O)NCCc1c[nH]c2ccccc12 [GLISTIN, glutaurylamidoethyl indole]",22.63,18.50,31.80,17.60
